Experimental data reported in PMC3949122 (Current biology : CB, 2014).
Like-named read-outs stand apart in the source and are kept apart here. Where no end group is shown, it is not given here.

Columns and labels:
TRPA1 [1] = conditions: cited from earlier work; for activation of TRPA1 via covalent modification: ref [40]-[44]; for activation of TRPA1 by allosteric modulators: interact with transmembrane domains, not the intracellular C-terminus, ref [41], [45], [46]
TRPA1 [2] = target: TRPA1 (Homo sapiens, UniProt O75762); type: cell-based; conditions: alanine scanning of t-ProTx-I; label = residue mutated to Ala
Sequence of TRPA1 (Homo sapiens, UniProt O75762) (O75762 whole entry): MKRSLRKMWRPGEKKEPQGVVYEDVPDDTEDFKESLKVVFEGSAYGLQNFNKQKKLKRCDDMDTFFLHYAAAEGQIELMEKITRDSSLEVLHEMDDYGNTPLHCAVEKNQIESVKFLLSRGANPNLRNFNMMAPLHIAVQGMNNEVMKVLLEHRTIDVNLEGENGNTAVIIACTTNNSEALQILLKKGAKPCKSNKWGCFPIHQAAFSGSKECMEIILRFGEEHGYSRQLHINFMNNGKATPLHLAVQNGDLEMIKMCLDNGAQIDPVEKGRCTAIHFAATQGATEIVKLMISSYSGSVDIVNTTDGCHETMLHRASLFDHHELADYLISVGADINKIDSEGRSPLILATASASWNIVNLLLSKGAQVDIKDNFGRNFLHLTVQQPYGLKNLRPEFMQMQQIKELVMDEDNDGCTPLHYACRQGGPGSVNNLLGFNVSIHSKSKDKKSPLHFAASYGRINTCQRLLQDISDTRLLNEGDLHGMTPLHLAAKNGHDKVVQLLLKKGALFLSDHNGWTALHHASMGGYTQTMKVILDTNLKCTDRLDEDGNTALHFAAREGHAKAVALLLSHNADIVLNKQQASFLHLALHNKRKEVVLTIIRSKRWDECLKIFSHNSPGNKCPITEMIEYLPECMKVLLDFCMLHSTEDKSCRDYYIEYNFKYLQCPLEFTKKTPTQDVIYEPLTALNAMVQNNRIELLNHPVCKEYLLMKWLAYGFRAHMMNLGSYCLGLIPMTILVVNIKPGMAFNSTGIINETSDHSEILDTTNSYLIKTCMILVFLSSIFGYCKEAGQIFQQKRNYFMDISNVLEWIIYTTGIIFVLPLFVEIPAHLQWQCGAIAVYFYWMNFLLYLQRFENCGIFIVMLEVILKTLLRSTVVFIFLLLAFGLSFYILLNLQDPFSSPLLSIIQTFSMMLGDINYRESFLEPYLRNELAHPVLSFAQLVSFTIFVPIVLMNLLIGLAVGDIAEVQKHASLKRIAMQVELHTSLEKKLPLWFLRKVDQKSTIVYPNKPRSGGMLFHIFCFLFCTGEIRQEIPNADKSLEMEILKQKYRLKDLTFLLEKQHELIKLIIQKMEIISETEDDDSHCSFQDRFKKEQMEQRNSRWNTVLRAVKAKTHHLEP

NaV1.2 = type: cell-based; conditions: membrane-tethered, co-expressed; voltage-induced currents

Clc1ccccc1C(c1ccccc1)(c1ccccc1)n1ccnc1 [clotrimazole]
activation of TRPA1 (TRPA1 [1]; ref [7]): activated

t-ProTx-I (S22A) (ECRYWLGGCSAGQTCCKHLVCARRHGWCVWDGTFS; ends and bridges not checked; also: membrane tether; UniProt P83480 1-35, looked up, variant S22A)
residue whose mutation to alanine reduces inhibition of TRPA1 (binding surface) (TRPA1 [2]): in common between the two binding surfaces | activity of t-ProTx-I alanine mutant against NaV1.2 / voltage-gated sodium channels (NaV1.2): strongly active

CN(C)CCCN1c2ccccc2Sc2ccc(Cl)cc21 [chlorpromazine]
activation of TRPA1 (TRPA1 [1]; ref [8]): activated

OO [hydrogen peroxide]
activation of TRPA1 via covalent modification (TRPA1 [1]): activates TRPA1

Oc1c(I)cc(Cl)c2cccnc12 [clioquinol]
activation of TRPA1 (TRPA1 [1]; ref [9]): activated

C=CCS[S+]([O-])CC=C (stereo not shown) [allicin]
activation of TRPA1 (TRPA1 [1]; ref [5], [6]): activated

OCl [hypochlorite]
activation of TRPA1 via covalent modification (TRPA1 [1]): activates TRPA1

C=CCN=C=S [allyl isothiocyanate]
activation of TRPA1 via covalent modification (TRPA1 [1]): activates TRPA1 | activation of TRPA1 (TRPA1 [1]; ref [5], [6]): activated

CC1CCC(C(C)C)C(O)C1 (stereo not shown) [menthol]
activation of TRPA1 by allosteric modulators (TRPA1 [1]): allosteric modulators

Cc1ccc(C(C)C)cc1O [carvacrol]
activation of TRPA1 by allosteric modulators (TRPA1 [1]): allosteric modulators

CCCCCC(O)/C=C/C=O (stereo not shown) [4-hydroxy-nonenal]
activation of TRPA1 via covalent modification (TRPA1 [1]): activates TRPA1
